Experimental data as given in patent publication US4946834A, “Phosphonic acid substituted steroids as steroid 5α-reductase inhibitors” (priority 1988, dated 1990).
Read-outs that look alike come from different tables or passages of the source.

How the values were obtained:
[1] = molecular target: steroid 5α-reductase; settings: cited from earlier work; for Ki: read-out: K1; for reversibility of inhibition (Reversible / Irreversible): printed in parentheses beside K1; for mode of inhibition (in words): literature statement in text
[2] = molecular target: T1, human steroid 5α-reductase (Homo sapiens, UniProt P31213); test: Inhibition of human prostatic steroid 5α-reductase ([14C]-testosterone conversion, Dixon analysis); assay type: biochemical
T1 construct: using tissue from hyperplastic human prostates; from tissue; host or cells: frozen human prostates (hyperplastic), washed particulate fraction from differential centrifugation
T1 sequence (P31213 1-254): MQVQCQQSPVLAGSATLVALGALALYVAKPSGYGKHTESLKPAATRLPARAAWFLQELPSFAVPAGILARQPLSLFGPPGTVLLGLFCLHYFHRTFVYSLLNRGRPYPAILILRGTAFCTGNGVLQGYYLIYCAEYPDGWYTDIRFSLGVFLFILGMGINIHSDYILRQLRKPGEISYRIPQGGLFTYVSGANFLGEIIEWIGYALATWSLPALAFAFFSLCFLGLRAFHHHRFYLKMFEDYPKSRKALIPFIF
Procedure: In determining potency in inhibiting the human enzyme, the following procedure was employed:
The resulting pellet was suspended in 20 mM potassium phosphate buffer, pH 6.5, containing 20% glycerol, 1 mM dithiothreitol, and 50 μM NADPH. The suspended particulate solution was stored at -80° C.
To each tube was added buffer, 20 μl of 10 mM NADPH and an aliquot of prostatic particulate solution to a final volume of 1.0 ml of 50 mM sodium citrate, pH 5.0. After incubating the solution at 37° C. for 20 to 30 minutes the reaction was quenched by the addition of 4 ml ethyl acetate and 0.25 μmol each of testosterone, dihydrotestosterone, androstanediol, and androstanedione as carriers. […] The radiochemical content in the bands of the substrate and the products was determined with a BIOSCAN Imaging Scanner (Bioscan, Inc., Washington, D.C.). The percent of recovered radiolabel converted to product was calculated, from which enzyme activity was determined. […]
The experimentally obtained data was computer fitted to a linear function by plotting the reciprocal of the enzyme activity (1/velocity) against the variable inhibitor concentration (Dixon, M. (1953), Biochem. J., 55, 170). Assuming that the steroidal inhibitor is a competitive inhibitor against testosterone, a value for the inhibition constant (Ki) can be calculated from equation 1: […]

[3] = 5α-reductase inhibitors, literature reference given per compound

For `C[C@]12CC[C@H]3[C@@H](CCC4=CC(=O)CC[C@@]43C)[C@@H]1CC[C@@H]2C(=O)O` [(1)], the Ki [1, 3] is listed as 1100 nM and the “reversibility of inhibition (Reversible / Irreversible)” value [1] is listed as “Reversible”.
For `CC(=O)C1CCC2C3CC=C=CC(=O)CCC(=O)C3CCC12C` (centres unmarked) [(2)], the Ki [1, 3] is listed as 1000 nM and the “reversibility of inhibition (Reversible / Irreversible)” value [1] is listed as “Irreversible”.
In the case of `C=C1C[C@@H]2[C@H](CC[C@@]3(C)[C@H]2CC[C@]3(OC(C)=O)C(C)=O)[C@@]2(C)CCC(=O)C=C12` [(5)], the Ki [1, 3] is listed as 1250 nM, the “mode of inhibition (in words)” value [1] is listed as “time dependent inactivator of steroid 5α-reductase” and the “reversibility of inhibition (Reversible / Irreversible)” value [1] is listed as “Irreversible”.
Molecule `CC(C)N(C(=O)[C@H]1CC[C@H]2[C@@H]3CC=C4C=C(P(=O)(O)O)CC[C@]4(C)[C@H]3CC[C@]12C)C(C)C` [Example 1, 17β-(N,N-diisopropylcarboxamide)-androst-3,5-diene-3phosphonic acid] has a Ki ([2]; hyperplastic human prostate particulate, pH 5.0, 37° C., 20 to 30 minutes, competitive inhibition against testosterone assumed, read-out: Ki (inhibition constant of human prostatic steroid 5α-reductase)) of 15 to 40 nM.
In the case of `CCN(CC)C(=O)[C@H]1CC[C@H]2[C@@H]3CC[C@H]4N(C)C(=O)CC[C@]4(C)[C@H]3CC[C@]12C` [(4)], the Ki [1, 3] is listed as 5 nM and the “reversibility of inhibition (Reversible / Irreversible)” value [1] is listed as “Reversible”.
For `CC(CO)[C@H]1CC[C@H]2[C@@H]3CC[C@H]4C(=[N+]=[N-])C(=O)CC[C@]4(C)[C@H]3CC[C@]12C` (some centres unmarked) [(3)], the “mode of inhibition (in words)” value [1] is given as “potent, time-dependent inhibitor of steroid 5α-reductase”, the “reversibility of inhibition (Reversible / Irreversible)” value [1] is given as “Irreversible” and the Ki ([1]; unit inferred, Blohm, et al., 1980) is given as 35 nM.
`CC(C)N(C(=O)[C@H]1CC[C@H]2[C@@H]3CCC4=CC(P(=O)(O)O)=CC[C@]4(C)[C@H]3CC[C@]12C)C(C)C` [Example 30, 17β-(N,N-diisopropylcarboxamide)-androst-2,4-diene-3-phosphonic acid] gave a Ki [2] of 160 nM.
